Data on two compounds can be found in patent US10947289B2, “Glyco-modified atrial natriuretic peptide” (priority 2013, dated 2021).

The target of one series is T1, human GC-A (Homo sapiens, UniProt P16066).
T1 construct: expressed in transfected cells; host or cells: CHO cells
T1 sequence (P16066 33-1061): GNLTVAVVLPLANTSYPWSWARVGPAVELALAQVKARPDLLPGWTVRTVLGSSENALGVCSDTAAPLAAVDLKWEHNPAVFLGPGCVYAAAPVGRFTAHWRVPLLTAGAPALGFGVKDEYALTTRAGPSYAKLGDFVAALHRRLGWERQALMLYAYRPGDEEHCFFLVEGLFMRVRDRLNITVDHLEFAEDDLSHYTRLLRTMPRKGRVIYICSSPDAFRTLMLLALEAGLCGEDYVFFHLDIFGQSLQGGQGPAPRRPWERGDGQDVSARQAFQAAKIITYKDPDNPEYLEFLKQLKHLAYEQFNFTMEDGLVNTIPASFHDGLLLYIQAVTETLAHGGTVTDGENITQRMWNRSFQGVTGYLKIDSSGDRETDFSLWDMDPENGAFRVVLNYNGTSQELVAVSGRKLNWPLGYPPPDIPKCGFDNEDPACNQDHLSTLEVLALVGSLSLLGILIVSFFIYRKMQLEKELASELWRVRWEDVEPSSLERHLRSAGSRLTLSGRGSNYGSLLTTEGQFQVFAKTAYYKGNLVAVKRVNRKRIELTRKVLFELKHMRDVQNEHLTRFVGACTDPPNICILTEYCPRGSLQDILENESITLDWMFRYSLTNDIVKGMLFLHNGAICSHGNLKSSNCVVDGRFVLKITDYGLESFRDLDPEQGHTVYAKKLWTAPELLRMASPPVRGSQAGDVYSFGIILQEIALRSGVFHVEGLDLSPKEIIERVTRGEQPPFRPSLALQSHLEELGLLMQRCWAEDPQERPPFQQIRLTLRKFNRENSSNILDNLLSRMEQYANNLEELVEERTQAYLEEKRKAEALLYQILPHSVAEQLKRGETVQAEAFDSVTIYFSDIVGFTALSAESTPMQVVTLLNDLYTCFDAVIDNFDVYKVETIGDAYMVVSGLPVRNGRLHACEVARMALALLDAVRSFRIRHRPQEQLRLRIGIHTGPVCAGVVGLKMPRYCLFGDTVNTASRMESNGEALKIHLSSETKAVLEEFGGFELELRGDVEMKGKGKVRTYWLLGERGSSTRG
Put plainly: cGMP elevating activity in CHO/human GC-A cells (Test Example 1). The series is classed as cell-based. Summed up: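 cGMP in lysates was read by HTRF after a 15 min peptide exposure of GC-A-expressing CHO cells in a CO2 incubator, following 10 min room-temperature preincubation with 1.6 mM IBMX in KRB. T/C values were normalised between solvent wells (0) and 1 nM ANP wells (1).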

Series [1] can be described thus: Detection of test substance in rat plasma by LC-MS/MS (Test Example 3). As to conditions: rat plasma, 100 nmol/kg i.v., LC-MS/MS; time at which the test substance was finally detected. The series is classed as in vivo. Summed up:
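Reported as final detection time: LC-MS/MS measured test substance in rat plasma collected from the jugular vein at 15, 30, 60, 90, 120, 180 and 240 min post-dose. Sample prep used a labelled hANP internal standard, acidic solvent, and sequential 50K then 3K ultrafiltration, keeping the 3K retentate.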

In general, EC50 refers to the midpoint of the concentration-response curve. A higher EC50 goes with a less potent agent. `CC[C@H](C)[C@@H]1NC(=O)[C@H](CCCNC(=N)N)NC(=O)[C@H](CC(=O)O)NC(=O)[C@H](CCSC)NC(=O)[C@H](CCCNC(=N)N)NC(=O)CNC(=O)CNC(=O)[C@H](Cc2ccccc2)NC(=O)[C@@H](NC(=O)[C@H](CO)NC(=O)[C@H](CO)NC(=O)[C@H](CCCNC(=N)N)NC(=O)[C@H](CCCNC(=N)N)NC(=O)[C@H](CC(C)C)NC(=O)[C@H](CO)NC(=O)CNC(=O)[C@H](CCCCNC(=O)CO[C@@H]2O[C@H](CO)[C@@H](O[C@@H]3O[C@H](CO)[C@@H](O[C@@H]4O[C@H](CO[C@H]5O[C@H](CO)[C@@H](O)[C@H](O)[C@@H]5O[C@@H]5O[C@H](CO)[C@@H](O[C@@H]6O[C@H](CO[C@]7(C(=O)O)C[C@H](O)[C@@H](NC(C)=O)[C@H]([C@H](O)[C@H](O)CO)O7)[C@H](O)[C@H](O)[C@H]6O)[C@H](O)[C@H]5NC(C)=O)[C@@H](O)[C@H](O[C@H]5O[C@H](CO)[C@@H](O)[C@H](O)[C@@H]5O[C@@H]5O[C@H](CO)[C@@H](O[C@@H]6O[C@H](CO[C@]7(C(=O)O)C[C@H](O)[C@@H](NC(C)=O)[C@H]([C@H](O)[C@H](O)CO)O7)[C@H](O)[C@H](O)[C@H]6O)[C@H](O)[C@H]5NC(C)=O)[C@@H]4O)[C@H](O)[C@H]3NC(C)=O)[C@H](O)[C@H]2NC(C)=O)NC(=O)CO[C@@H]2O[C@H](CO)[C@@H](O[C@@H]3O[C@H](CO)[C@@H](O[C@@H]4O[C@H](CO[C@H]5O[C@H](CO)[C@@H](O)[C@H](O)[C@@H]5O[C@@H]5O[C@H](CO)[C@@H](O[C@@H]6O[C@H](CO[C@]7(C(=O)O)C[C@H](O)[C@@H](NC(C)=O)[C@H]([C@H](O)[C@H](O)CO)O7)[C@H](O)[C@H](O)[C@H]6O)[C@H](O)[C@H]5NC(C)=O)[C@@H](O)[C@H](O[C@H]5O[C@H](CO)[C@@H](O)[C@H](O)[C@@H]5O[C@@H]5O[C@H](CO)[C@@H](O[C@@H]6O[C@H](CO[C@]7(C(=O)O)C[C@H](O)[C@@H](NC(C)=O)[C@H]([C@H](O)[C@H](O)CO)O7)[C@H](O)[C@H](O)[C@H]6O)[C@H](O)[C@H]5NC(C)=O)[C@@H]4O)[C@H](O)[C@H]3NC(C)=O)[C@H](O)[C@H]2NC(C)=O)CSSC[C@@H](C(=O)N[C@@H](CC(N)=O)C(=O)N[C@@H](CO)C(=O)N[C@@H](Cc2ccccc2)C(=O)N[C@@H](CCCNC(=N)N)C(=O)N[C@@H](Cc2ccc(O)cc2)C(=O)O)NC(=O)CNC(=O)[C@H](CC(C)C)NC(=O)CNC(=O)[C@H](CO)NC(=O)[C@H](CCC(N)=O)NC(=O)[C@H](C)NC(=O)CNC1=O` [Compound 2-14, SG-(SG-)Lys-Gly-hANP(1-28)]: the EC50 on human GC-A was 0.6 nM. Also, the “Maximum time of detection after administration” value in series [1] is 1.5 h.

Compound `CC[C@H](C)[C@@H]1NC(=O)[C@H](CCCNC(=N)N)NC(=O)[C@H](CC(=O)O)NC(=O)[C@H](CCSC)NC(=O)[C@H](CCCNC(=N)N)NC(=O)CNC(=O)CNC(=O)[C@H](Cc2ccccc2)NC(=O)[C@@H](NC(=O)[C@H](CO)NC(=O)[C@H](CO)NC(=O)[C@H](CCCNC(=N)N)NC(=O)[C@H](CCCNC(=N)N)NC(=O)[C@H](CC(C)C)NC(=O)[C@H](CO)NC(=O)CCOCCOCCOCCOCCOCCOCCOCCOCCOCCOCCOCCOCCNC(=O)[C@H](CC(=O)N[C@@H]2O[C@H](CO)[C@@H](O[C@@H]3O[C@H](CO)[C@@H](O[C@@H]4O[C@H](CO[C@H]5O[C@H](CO)[C@@H](O)[C@H](O)[C@@H]5O[C@@H]5O[C@H](CO)[C@@H](O[C@@H]6O[C@H](CO[C@]7(C(=O)O)C[C@H](O)[C@@H](NC(C)=O)[C@H]([C@H](O)[C@H](O)CO)O7)[C@H](O)[C@H](O)[C@H]6O)[C@H](O)[C@H]5NC(C)=O)[C@@H](O)[C@H](O[C@H]5O[C@H](CO)[C@@H](O)[C@H](O)[C@@H]5O[C@@H]5O[C@H](CO)[C@@H](O[C@@H]6O[C@H](CO[C@]7(C(=O)O)C[C@H](O)[C@@H](NC(C)=O)[C@H]([C@H](O)[C@H](O)CO)O7)[C@H](O)[C@H](O)[C@H]6O)[C@H](O)[C@H]5NC(C)=O)[C@@H]4O)[C@H](O)[C@H]3NC(C)=O)[C@H](O)[C@H]2NC(C)=O)NC(=O)CO[C@@H]2O[C@H](CO)[C@@H](O[C@@H]3O[C@H](CO)[C@@H](O[C@@H]4O[C@H](CO[C@H]5O[C@H](CO)[C@@H](O)[C@H](O)[C@@H]5O[C@@H]5O[C@H](CO)[C@@H](O[C@@H]6O[C@H](CO[C@]7(C(=O)O)C[C@H](O)[C@@H](NC(C)=O)[C@H]([C@H](O)[C@H](O)CO)O7)[C@H](O)[C@H](O)[C@H]6O)[C@H](O)[C@H]5NC(C)=O)[C@@H](O)[C@H](O[C@H]5O[C@H](CO)[C@@H](O)[C@H](O)[C@@H]5O[C@@H]5O[C@H](CO)[C@@H](O[C@@H]6O[C@H](CO[C@]7(C(=O)O)C[C@H](O)[C@@H](NC(C)=O)[C@H]([C@H](O)[C@H](O)CO)O7)[C@H](O)[C@H](O)[C@H]6O)[C@H](O)[C@H]5NC(C)=O)[C@@H]4O)[C@H](O)[C@H]3NC(C)=O)[C@H](O)[C@H]2NC(C)=O)CSSC[C@@H](C(=O)N[C@@H](CC(N)=O)C(=O)N[C@@H](CO)C(=O)N[C@@H](Cc2ccccc2)C(=O)N[C@@H](CCCNC(=N)N)C(=O)N[C@@H](Cc2ccc(O)cc2)C(=O)O)NC(=O)CNC(=O)[C@H](CC(C)C)NC(=O)CNC(=O)[C@H](CO)NC(=O)[C@H](CCC(N)=O)NC(=O)[C@H](C)NC(=O)CNC1=O` [Compound 2-27, SG-(SG-)Asn-PEG(11)-hANP(1-28)] had an EC50 at human GC-A of 0.26 nM. Besides, the “Maximum time of detection after administration” value in series [1] was found to be 2 h.
